The test system of assay [1] is 32P-3′-labeled EcoRI/PvuII restriction fragment of plasmid pDR1 (sites 5′-TGTCTA-3′, 5′-TGTTTA-3′, 5′-TGTATA-3′, 5′-TGTGTA-3′). Kind of assay: Quantitative DNase I footprint titration on pDR1 restriction fragment. In kind it is binding. How it is done: FIG. 4 illustrates the equilibrium association constants Ka[M^−1] for Polyamide Oligomers A-C, N, Q, and P. The reported association constants are the average values obtained from three DNase I footprint titration experiments, with the standard deviation for each data set indicated in the experiments. Assays were carried out at 22° C. at pH 7.0 in the presence of 10 mM Tris-HCl, 10 mM KCl, 10 mM MgCl2, and 5 mM CaCl2 with an equilibration time of 12 h. Specificities are give in brackets under the Ka values and calculated as Ka (match)/Ka (mismatch).
To examine whether an imidazo[4,5-b]pyridine unit Ip can replace a five-membered imidazole ring Im within an eight-ring hairpin polyamide regarding DNA binding affinity and specificity, polyamide oligomer A and its related all five-membered ring hairpin oligomer N were evaluated by DNase I footprint titrations under identical conditions. Quantitative DNase I footprint titration experiments (10 mM Tris-HCl, 10 mM KCl, 10 mM MgCl2, 5 mM CaCl2, pH 7.0, 22° C., equilibration time: 12 h) were performed on a ^32P-3′-labeled EcoRI/PvuII restriction fragment of plasmid pDR1 0 (FIG. 2). This DNA fragment contains four 6-base pair binding sites which differ at one position, 5′-TGTCTA-3′,5′-TGTTTA-3′,5′-TGTATA-3′, and 5′-TGTGTA-3′. The latter one was regarded as the possible match site having a G•C base pair under the Ip/Py or Im/Py pair, respectively.
Construction of plasmid DNA. The plasmid pDR1 was constructed by hybridization of the two oligonucleotides 5′-GATCAGGCTGTC-[…]-GCTGCTGTTTATGGACG-GCTGCTGTATATGGACGG-CTGGGCGA-3′ (SEQ ID NO:1) and 5′-AGCTTCGC-[…]-[…]-3′ (SEQ ID NO:2) followed by ligation into the BamHI/HinDIII restriction fragment of pUC19 using T4 DNA ligase. The resultant plasmid was then used to transform E. coli XL-1 Blue Supercompetent cells. Ampicillin-resistant white colonies were selected from 25 mL Luria-Bertani agar plates containing […] ampicillin, treated with XGAL and IPTG solutions and grown overnight at 37° C. Cells were harvested after overnight growth at 37° C. Large-scale plasmid purification was performed with Qiagen, purification kits. The presence of the desired insert was determined by dideoxy sequencing. DNA concentrations were determined at 260 nm using the relationship 1 OD unit) 50 μg/mL duplex DNA.
Preparation of 3′-End-Labeled DNA Restriction Fragments. The plasmid pDR1 was linearized with EcoRI and PVuII and treated with the Klenow fragment of DNA […], [R-^32P]-dATP, and [R-^32P]-TTP for 3′-end labeling. The labeled 3′-fragment was purified on a 7% nondenaturing polyacrylamide gel (5% cross-linkage) and the desired 284 base pair band isolated after visualization by autoradiography. The DNA was precipitated with 2-propanol, the pellet washed, lyophilized, and resuspended in RNase-free H2O. Chemical sequencing reactions were performed according to published protocols. (Troschütz, R.; Lückel, A. Arch. Pharm., 325, 617-619, 1992.)
DNase I Footprinting. All reactions were carried out in a volume of 400 μL according to published procedures. Quantitation by storage phosphor autoradiography and determination of equilibrium association constants were as previously described. (Trauger, J. W.; Dervan, P. B. Methods Enzymol., 340, 450-466, 2001.)

Assay [2] deals with 5′-TGGXCA-3′ (X=A, T, G, C). Description: DNase I footprint titration, single Hz/Py, Py/Hz, Hz/Bi, Bi/Hz pair position. In kind it is binding. The conditions noted are these: for preference for T•A over A•T: Hz/Py (G), Hz/Bi (I) pair; for preference for A•T over T•A: Py/Hz (J), Bi/Hz (L) pair. Here is the method:
FIG. 15 is a table showing the association equilibrium constant Ka[M^−1] for polyamide oligomers G and J. The reported association constants are the average values obtained from three DNase I footprint titration experiments, with the standard deviation given in parenthesis. Assays were carried out at 22° C. at pH 7.0 in the presence of 10 mM Tris-HCl, 10 mM KCl, 10 mM MgCl2, and 5 mM CaCl2 at pH 7.0.
FIG. 19 is a a table showing the association equilibrium constant Ka[M^−1] for polyamide oligomers I and L. The reported association constants are the average values obtained from three DNase I footprint titration experiments, with the standard deviation given in parenthesis. Assays were carried out at 22° C. at pH 7.0 in the presence of 10 mM Tris-HCl, 10 mM KCl, 10 mM MgCl2, and 5 mM CaCl2 at pH 7.0.
For polyamides Im-Im-Hz-Py-γ-Im-Py-Py-Py-β-Dp (oligomer G) and Im-Im-Py-Py-γ-Im-Hz-Py-Py-β-Dp (oligomer J), the DNA-sequence specificity at a single ring-pairing position (bolded in the sequences listed above) was determined by varying a single DNA base pair within the parent-sequence context, 5′-TGGXCA-3′, to all four Watson-Crick base pairs (X=A, T, G, C) and comparing the relative affinities of the resulting complexes (FIG. 14). The variable base-pair position was installed opposite the novel Hz/Py and Py/Hz pairs, designed to target T•A and A•T respectively. Equilibrium association constants (Ka) for polyamide oligomers containing Py/Py, Hp/Py and Py/Hp pairs have been reported and are included for comparison with values presented here (FIG. 15).
The variable base-pair position was installed opposite the novel Hz/Bi and Bi/Hz pairs, designed to target T•A and A•T respectively.
Footprinting Experiments.—Plasmids pDHN1 and pDEH10 were constructed and 5′-radiolabeled as previously described. (Nguyen, D. H. et al., Bioorg. Med. Chem., 9: 7-17, 2001; Melander, C. et al., Chem. Eur. J., 24: 4487-4497, 2000.) DNase I footprint titrations were performed according to standard protocols. (Trauger, J. W. et al., Methods Enzymol., 340: 450-466, 2001.)

The record followed here is patent US8524899B2, “Alternative heterocycles for DNA recognition” (California Institute of Technology, priority 2003, dated 2013).

Consider `CNC(=O)c1cc(NC(=O)c2cc(NC(=O)c3cc(NC(=O)c4cc(NC(=O)[C@H](N)CCNC(=O)c5cc(NC(=O)c6ccc7nc(-c8cc(NC(=O)c9nccn9C)cn8C)[nH]c7n6)cn5C)cn4C)cn3C)cn2C)cn1C` [A], for which, in assay [1] (G•C match vs A•T and T•A sites), the “specificity of match site versus A•T and T•A sites” value was “similar”. For the same compound, in assay [1] (G•C match vs C•G site), the “preference for match site 5′-TGTGTA-3′ versus the C•G site” value is recorded as “slight decrease”. Besides, in assay [1] (site 5′-TGTGTA-3′), the “higher affinity than related all five-membered ring oligomer” value is on record as 5 fold. Also, the “equilibrium association constant Ka” value in assay [1] (site 5′-TGTGTA-3′ (G•C), pH 7.0, 22° C., equilibration 12 h) was 1.2e+10 M⁻¹.
With `CNC(=O)c1cc(NC(=O)c2cc(NC(=O)c3cc(NC(=O)c4cc(NC(=O)[C@H](N)CCNC(=O)c5cc(NC(=O)c6ccc7nc(-c8cc(NC(=O)c9nccn9C)cn8C)[nH]c7c6)cn5C)cn4C)cn3C)cn2C)cn1C` [C], the “binding site preference, affinity and specificity compared with related all five-membered ring oligomer” value in assay [1] (B vs Q, C vs P) is recorded as “same binding site preference”.
In the case of `CN(C)CCCNC(=O)CCNC(=O)c1cc(NC(=O)c2cc(NC(=O)c3cc(NC(=O)c4nc(NC(=O)CCCNC(=O)c5cc(NC(=O)c6ccc7nc(-c8nc(NC(=O)c9nccn9C)cn8C)[nH]c7c6O)cn5C)cn4C)cn3C)cn2C)cn1C` [G], in assay [2], the “selectivity for A,T over G,C” value is recorded as “more than 50 fold” and the “preference for T•A over A•T” value is listed as 10 fold.
For `CN(C)CCCNC(=O)CCNC(=O)c1cc(NC(=O)c2cc(NC(=O)c3ccc4nc(-c5nc(NC(=O)CCCNC(=O)c6cc(NC(=O)c7ccc8nc(-c9nc(NC(=O)c%10nccn%10C)cn9C)[nH]c8c7O)cn6C)cn5C)[nH]c4c3)cn2C)cn1C` [I] the same measures were 13 fold and 2.5 fold.
As for `CN(C)CCCNC(=O)CCNC(=O)c1cc(NC(=O)c2cc(NC(=O)c3ccc4nc(-c5nc(NC(=O)CCCNC(=O)c6cc(NC(=O)c7cc(NC(=O)c8nc(NC(=O)c9nccn9C)cn8C)cn7C)cn6C)cn5C)[nH]c4c3O)cn2C)cn1C` [J], in assay [2], the “selectivity for A,T over G,C” value is “more than 30 fold” and the “preference for A•T over T•A” value is listed as “more than 4 fold”.
As for `CN(C)CCCNC(=O)CCNC(=O)c1cc(NC(=O)c2cc(NC(=O)c3ccc4nc(-c5nc(NC(=O)CCCNC(=O)c6cc(NC(=O)c7ccc8nc(-c9nc(NC(=O)c%10nccn%10C)cn9C)[nH]c8c7)cn6C)cn5C)[nH]c4c3O)cn2C)cn1C` [L], in assay [2], the “selectivity for A,T over G,C” value turned out to be 4.5 fold and the “preference for A•T over T•A” value is 2.5 fold. Moreover, in assay [2] (5′-TGGXCA-3′, 22° C., pH 7.0), the “Ka (affinity)” value is listed as “high affinity”.
